{"source": "patent US9707265B2", "about": "“Treatment of muscular dystrophy” (The University of Sheffield, priority 2012, dated 2017)", "key": {"[1]": {"test_system": "sapje zebrafish", "test": "Rescue of the dystrophic phenotype (muscle integrity, actin:GFP) in sapje zebrafish embryos", "assay_type": "in vivo", "details": "sapje embryos treated from 24 hpf; actin:GFP as marker of muscle integrity", "protocol": "Zebrafish embryos were collected from group matings of heterozygous sapje ta222a (a dystrophin mutant) and homozygous for a transgene that labels all the fast muscle with GFP (actin:GFP;). At 24 hours post fertilization (hpf) embryos were dechorionated enzymatically, washed and arrayed into multiwell plates with 40 embryos per treatment (5 embryos per well). Sapje embryos are produced at normal Mendelian frequencies, so from 40 embryos we expect 10 homozygote for sapje. Compounds to be tested were added to a final concentration based on available clinical or mouse studies for EC50. All plates included negative controls. Live embryos were assayed for muscle degeneration using actin:GFP as a marker of muscle integrity in sapje fish. Fluorescent scans for GFP along the body axis of wildtype siblings or mutant fish reveal a dramatic profile of fluorescence intensity which clearly distinguished the normal muscle from damaged muscle."}, "[2]": {"test_system": "mdx mouse", "details": "Gazzerro et al. 2010; cited from earlier work"}, "[3]": {"test_system": "β-dystroglycan", "test": "β-dystroglycan ubiquitination after protein tyrosine phosphatase inhibition in myoblast cells expressing HA-tagged ubiquitin", "assay_type": "cell-based", "details": "immunoprecipitation and western blot", "source_text": "Tyrosine phosphatases were inhibited in myoblast cells in vitro using peroxyvanadate and samples from cells expressing HA-tagged ubiquitin were taken for immunoprecipitation and western blot analysis. Immunoprecipitation with either the HA tag, or β-dystroglycan at various time points was followed by Western blotting for the HA epitope, β-dystroglycan or tubulin as a loading control."}, "[4]": {"target": "T1, ubiquitin activating enzyme E1 (Homo sapiens, UniProt P22314)", "T1 sequence (P22314 1-1058)": "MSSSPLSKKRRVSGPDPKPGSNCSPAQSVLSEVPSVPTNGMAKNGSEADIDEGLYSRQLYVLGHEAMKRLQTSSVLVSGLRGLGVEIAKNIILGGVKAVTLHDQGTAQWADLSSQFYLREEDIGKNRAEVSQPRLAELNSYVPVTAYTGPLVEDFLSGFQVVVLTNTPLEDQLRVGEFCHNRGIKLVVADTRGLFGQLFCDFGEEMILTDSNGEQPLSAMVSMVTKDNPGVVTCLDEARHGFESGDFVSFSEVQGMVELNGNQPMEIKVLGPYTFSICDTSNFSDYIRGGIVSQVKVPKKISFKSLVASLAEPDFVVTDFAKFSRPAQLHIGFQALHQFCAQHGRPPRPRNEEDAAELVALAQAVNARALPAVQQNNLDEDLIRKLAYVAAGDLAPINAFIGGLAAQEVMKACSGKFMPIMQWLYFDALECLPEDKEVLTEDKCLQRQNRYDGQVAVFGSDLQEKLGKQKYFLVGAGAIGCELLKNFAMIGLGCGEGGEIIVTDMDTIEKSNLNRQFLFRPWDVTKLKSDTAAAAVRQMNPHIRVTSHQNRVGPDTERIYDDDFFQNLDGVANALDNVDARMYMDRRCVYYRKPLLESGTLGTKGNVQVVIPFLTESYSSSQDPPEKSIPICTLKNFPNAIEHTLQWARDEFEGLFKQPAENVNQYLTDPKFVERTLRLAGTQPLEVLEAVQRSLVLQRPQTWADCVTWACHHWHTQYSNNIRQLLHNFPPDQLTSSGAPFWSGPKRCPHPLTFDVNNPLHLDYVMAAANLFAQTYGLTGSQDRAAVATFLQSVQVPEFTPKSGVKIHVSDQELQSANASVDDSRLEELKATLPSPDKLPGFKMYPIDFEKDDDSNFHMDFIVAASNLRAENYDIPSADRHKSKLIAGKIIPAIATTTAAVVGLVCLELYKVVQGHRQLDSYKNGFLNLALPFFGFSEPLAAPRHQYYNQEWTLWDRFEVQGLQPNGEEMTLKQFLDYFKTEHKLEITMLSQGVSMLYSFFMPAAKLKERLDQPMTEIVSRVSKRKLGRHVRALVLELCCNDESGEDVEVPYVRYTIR", "details": "reference 51; cited from earlier work"}, "[5]": {"test_system": "β-dystroglycan", "test": "Western blot analysis of β-dystroglycan and phosphorylated β-dystroglycan in sapje fish", "assay_type": "in vivo, zebrafish", "details": "1 μM MG132, western blot", "protocol": "FIG. 16. Illustrates western blot analysis of β-dystroglycan (β-DG) and phosphorylated β-dystroglycan (p β-DG) in sapje fish (blue bars) and in sapje fish treated with 1 μM of the proteasomal inhibitor MG132 (purple bars)."}}, "note": "Entries after “also recorded” stand apart in the source; their conditions may differ. Where a SMILES comes first, the peptide text is derived from it. The star is where a group is joined. Cbz = O=C(OCc1ccccc1)*", "data": [{"compound": "CC(C)C[C@H](NC(=O)[C@H](CCc1ccccc1)NC(=O)CN1CCOCC1)C(=O)N[C@@H](Cc1ccccc1)C(=O)N[C@@H](CC(C)C)C(=O)[C@@]1(C)CO1", "note": "[Carfilzomib]", "values": [{"measurement": "effect on the dystrophic phenotype of sapje zebrafish", "setting": "[1]", "result": "dose dependent rescue"}]}, {"compound": "CC(C)C[C@H](NC(=O)[C@H](Cc1ccccc1)NC(=O)c1cnccn1)B(O)O", "note": "[bortezomib]", "values": [{"measurement": "effect on the dystrophic phenotype of sapje zebrafish", "setting": "[1]", "result": "Qualitatively similar results; also recorded: dose dependent rescue"}, {"measurement": "restoration of DGC components", "setting": "[2]", "result": "restore DGC components"}]}, {"compound": "peroxyvanadate", "values": [{"measurement": "ubiquitin-β-dystroglycan bands over time course of treatment", "setting": "[3]", "result": "increase in the proportion and number of ubiquitin-β-dystroglycan bands"}]}, {"compound": "CCOC(=O)c1ccc(N2NC(=O)/C(=C/c3ccc([N+](=O)[O-])o3)C2=O)cc1", "note": "[Pyr-41]", "values": [{"measurement": "effect on the dystrophic phenotype of sapje zebrafish", "setting": "[1]", "result": "small but positive benefit; also recorded: dose dependent rescue"}, {"measurement": "inhibition of ubiquitin activating enzyme E1", "setting": "[4]", "result": "inhibit the ubiquitin activating enzyme E1"}]}, {"compound": "CC(C)C[C@@H](C=O)NC(=O)[C@H](CC(C)C)NC(=O)[C@H](CC(C)C)NC(=O)OCc1ccccc1", "note": "[MG132] (Cbz-Leu-Leu-Leu-aldehyde)", "values": [{"measurement": "effect on the dystrophic phenotype of sapje zebrafish", "setting": "[1]", "result": "dose dependent rescue"}, {"measurement": "amount of non-phosphorylated b-dystroglycan in treated sapje fish", "setting": "[5]", "result": "significant increase"}, {"measurement": "amount of phosphorylated b-dystroglycan in treated sapje fish", "setting": "[5]", "result": "significant increase"}]}]}
